Assay results reported in US11415579B2, “Assay for measuring a rate of reaction between a target and a ligand candidate” (Imperial College Innovations Ltd., priority 2016, dated 2022).

How the values were obtained:
Cdk2(C177A, F80C) = molecular target: T1, Cdk2(C177A, F80C) (Homo sapiens, UniProt P24941, C177A/F80C); assay: Kinetic thiol consumption assay with Cdk2 mutant F80C, incl. kobs versus concentration (Kd, k2); assay type: binding; set-up: key to Rate enhancement, Cdk2 F80C: Cdk2 rate constant divided by model-thiol rate constant; conditions: additional mutation C177A; for Rate constant with Cdk2 F80C: Protein: Cdk2, cysteine position F80C, in h^-1
T1 construct: poly-histidine; made in house; host or cells: E. coli
Method in brief: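 His-tagged Cdk2(C177A/F80C) from E. coli or model thiol, 5 μM in degassed phosphate buffer pH 8 with TCEP beads, reacted with acrylamide ligands; fluorescence (ex/em 380/470 nm) normalized to DMSO control and fitted to first-order decay for kobs. Kd and k2 obtained from hyperbolic fit of kobs versus ligand concentration.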

Cdk2(N272C) (C177A) = molecular target: T2, Cdk2(N272C) (C177A) (Homo sapiens, UniProt P24941, C177A/N272C); assay: Kinetic thiol consumption assay with Cdk2 mutant N272C; assay type: binding; set-up: key to Rate enhancement, Cdk2 N272: rate constant with Cdk2 ÷ rate constant with model thiol (fold); conditions: for Rate enhancement, Cdk2 N272: Cdk2 N272, additional mutation C177A; for Rate constant with Cdk2 N272C: Protein: Cdk2, cysteine position N272C, additional mutation C177A, in h^-1
T2 construct: poly-histidine; made in house; host or cells: E. coli
Method in brief: (§1)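 Read-out is fluorescence at 380/470 nm, taken after 1 h at room temperature and normalized to a DMSO/thiol-only control over time. Thiol (5 μM Cdk2 mutant or model thiol) was in degassed pH 8 phosphate buffer with 2% v/v TCEP beads. Acrylamide rate constants for Cdk2 were divided by those with model thiol.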

Cdk2(H71C) (C177A) = molecular target: T3, Cdk2(H71C) (C177A) (Homo sapiens, UniProt P24941, C177A/H71C); assay: Kinetic thiol consumption assay with Cdk2 mutant H71C; assay type: binding; set-up: key to Rate enhancement, Cdk2 H71C: rate constant with Cdk2 ÷ rate constant with model thiol (fold); conditions: additional mutation C177A; for Rate constant with Cdk2 H71C: Protein: Cdk2, cysteine position H71C, in h^-1
T3 construct: poly-histidine; made in house; host or cells: E. coli
Method in brief: as §1

Cdk2(S276C) (C177A) = molecular target: T4, Cdk2(S276C) (C177A) (Homo sapiens, UniProt P24941, C177A/S276C); assay: Kinetic thiol consumption assay with Cdk2 mutant S276C; assay type: binding; set-up: key to Rate enhancement, Cdk2 S276C: rate constant with Cdk2 ÷ rate constant with model thiol (fold); conditions: additional mutation C177A; for Rate constant with Cdk2 S276C: Protein: Cdk2, cysteine position S276C, in h^-1
T4 construct: poly-histidine; made in house; host or cells: E. coli
Method in brief: as §1

Cdk2(T182C) (C177A) = molecular target: T5, Cdk2(T182C) (C177A) (Homo sapiens, UniProt P24941, C177A/T182C); assay: Kinetic thiol consumption assay with Cdk2 mutant T182C; assay type: binding; set-up: key to Rate enhancement, Cdk2 T182C: rate constant with Cdk2 ÷ rate constant with model thiol (fold); conditions: additional mutation C177A; for Rate constant with Cdk2 T182C: Protein: Cdk2, cysteine position T182C, in h^-1
T5 construct: poly-histidine; made in house; host or cells: E. coli
Method in brief: as §1

Cdk2[C177A, F80C, K278C] = molecular target: T6, Cdk2[C177A, F80C, K278C] (Homo sapiens, UniProt P24941, C177A/F80C/K278C); assay: Kinetic thiol consumption assay with mutant Cdk2 as model thiol; assay type: binding; set-up: unit not given here; conditions: 500 μM ligand, 5 μM thiol, phosphate buffer pH 8
T6 construct: poly-histidine; made in house; host or cells: E. coli
Method: A library of 120 acrylamides was screened against a) human cyclin-dependent kinase 2 (Cdk2, which contains one surface exposed cysteine residue—C177), prepared by cloning cDNA into the pRSETA bacterial expression vector to generate a poly-histidine tagged Cdk2 fusion that was purified from E. coli using standard techniques, and b) a model thiol (specific details are given below). The structures of these 120 acrylamides are set out in Table 1, above.
To wells containing 150 μL thiol (Cdk2 or model thiol) (5 μM) in degassed phosphate buffer (pH 8) was added immobilized TCEP beads (2% v/v).
After incubation of the fluorescence plates for 1 hour at room temperature, fluorescence measurements (excitation/emission of 380/470 nm) were taken on a PerkinElmer EnVision multilabel plate reader and processed with EnVision Workstation version 1.12.
Fluorescence measurements were normalized against a DMSO/thiol only control and plotted against time.
Rate constants were calculated using GraphPad software Prism version 6 by fitting a first order exponential decay to the data. The rate constant for each acrylamide with Cdk2 was divided by the rate constant for that fragment with the model thiol to provide the rate enhancement for each ligand candidate.
The model thiol used in Example 2 is a mutant form of human Cdk2 (C177A, F80C, K278C) which contains two engineered surface exposed cysteine residues. Mutations were introduced by site-directed mutagenesis and the resulting cDNA was cloned into the pRSETA bacterial expression vector to generate a poly-histidine tagged Cdk2 fusion that was purified from E. coli using standard techniques.

Cdk2(S181C) (C177A) = molecular target: T7, Cdk2(S181C) (C177A) (Homo sapiens, UniProt P24941, C177A/S181C); assay: Kinetic thiol consumption assay with Cdk2 mutant S181C; assay type: binding; set-up: key to Rate enhancement, Cdk2 S181C: rate constant with Cdk2 ÷ rate constant with model thiol (fold); conditions: additional mutation C177A; for Rate constant with Cdk2 S181C: Protein: Cdk2, cysteine position S181C, in h^-1
T7 construct: poly-histidine; made in house; host or cells: E. coli
Method in brief: as §1

[1] = Kinetic thiol consumption assay with model thiol glutathione; assay type: physicochemical; set-up: Rate constant with glutathione (k(GSH)): unit not given here; conditions: for Rate constant with glutathione (k(GSH)): 500 μM ligand, 5 μM thiol, phosphate buffer pH 8; for Rate constant with Glutathione: Protein: Glutathione, cysteine position NA, in h-1
Method in brief: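 Rate constants for acrylamide reaction with 5 μM glutathione come from first-order exponential fits of normalized fluorescence decay (ex 380, em 470 nm). Reactions run in degassed phosphate buffer at pH 8 containing TCEP beads, room temperature.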

Cdk2(R122C) (C177A) = molecular target: T8, Cdk2(R122C) (C177A) (Homo sapiens, UniProt P24941, C177A/R122C); assay: Kinetic thiol consumption assay with Cdk2 mutant R122C; assay type: binding; set-up: key to Rate enhancement, Cdk2 R122C: rate constant with Cdk2 ÷ rate constant with model thiol (fold); conditions: additional mutation C177A; for Rate constant with Cdk2 R122C: Protein: Cdk2, cysteine position R122C, in h-1
T8 construct: poly-histidine; made in house; host or cells: E. coli
Method in brief: as §1

[2] = molecular target: T9, human cyclin-dependent kinase 2 (Cdk2) (Homo sapiens, UniProt P24941); assay: Kinetic thiol consumption assay with wild type Cdk2 (C177); assay type: binding; set-up: key to Rate enhancement, Cdk2 WT: k(Cdk2) divided by k(model thiol); Rate constant with Cdk2 (k(Cdk2)): unit not given here; conditions: for Rate constant with Cdk2 (k(Cdk2)): 500 μM ligand, 5 μM thiol, phosphate buffer pH 8; for Rate enhancement, Cdk2 WT: no additional mutations; for Rate constant with Cdk2 WT: Protein: Cdk2, cysteine position WT, in h^-1; for k(Cdk2)/k(Cdk2_mut) rate enhancement: model thiol Cdk2[C177A, F80C, K278C]; for k(Cdk2)/k(GSH) rate enhancement: model thiol glutathione
T9 construct: poly-histidine; made in house; host or cells: E. coli
Method in brief: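 Thiol 5 μM (Cdk2 or model thiol), degassed phosphate buffer pH 8, TCEP beads 2% v/v. Plates incubated 1 h RT, ex/em 380/470 nm. First-order decay fit → rate constant; ratio Cdk2/model thiol = rate enhancement.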

Row | Compound | Rate enhancement, Cdk2 F80C (Cdk2(C177A, F80C)) | Rate constant with Cdk2 F80C (Cdk2(C177A, F80C)) | Rate enhancement, Cdk2 N272 (Cdk2(N272C) (C177A)) | Rate constant with Cdk2 N272C (Cdk2(N272C) (C177A)) | Rate enhancement, Cdk2 H71C (Cdk2(H71C) (C177A)) | Rate constant with Cdk2 H71C (Cdk2(H71C) (C177A)) | Rate enhancement, Cdk2 S276C (Cdk2(S276C) (C177A)) | Rate constant with Cdk2 S276C (Cdk2(S276C) (C177A)) | Rate enhancement, Cdk2 T182C (Cdk2(T182C) (C177A)) | Rate constant with Cdk2 T182C (Cdk2(T182C) (C177A)) | Rate constant with Cdk2[C177A, F80C, K278C] (k(Cdk2_mut)) (Cdk2[C177A, F80C, K278C]) | Rate enhancement, Cdk2 S181C (Cdk2(S181C) (C177A)) | Rate constant with Cdk2 S181C (Cdk2(S181C) (C177A)) | Rate constant with glutathione (k(GSH)) [1] | Rate constant with Glutathione [1] | Rate enhancement, Cdk2 R122C (Cdk2(R122C) (C177A)) | Rate constant with Cdk2 (k(Cdk2)) [2] | Rate enhancement, Cdk2 WT [2] | Rate constant with Cdk2 WT [2] | k(Cdk2)/k(Cdk2_mut) rate enhancement [2] | further results
1 | C=CC(=O)NCCN1CCOCC1 [BN-346] | 0.189 | 0.0008792 | 0.4286 | 0.001994 | 0.09555 | 0.0004445 | 0.2004 | 0.0009323 | 0.1853 | 0.000862 | 0.00146 | 0.233 | 0.001084 | 0.00299 | 0.004652 | 0 | 0.00428 | 1.185 | 0.005514 | 2.921 | k(Cdk2)/k(GSH) rate enhancement [2]: 1.429
2 | C=CC(=O)NCCNC(=O)c1ccccc1 [CA216] | 18.66 | 0.07999 | 2.921 | 0.01252 | 1.033 | 0.004427 | 1.648 | 0.007064 | 59.66 | 0.2557 | 0.01899 | 0.8854 | 0.003795 | 0.00254 | 0.004286 | 0.4256 | 0.00676 | 3.777 | 0.01619 | 0.356 | Rate constant with Cdk2 R122C (Cdk2(R122C) (C177A)): 0.001824; k(Cdk2)/k(GSH) rate enhancement [2]: 2.66
3 | C=CC(=O)NCc1ccccc1 [CA-009] | 0.5029 | 0.003513 | 1.318 | 0.009206 | 0.2836 | 0.001981 | 0.8186 | 0.005718 | 21.57 | 0.1507 | 0.00402 | 0.4707 | 0.003288 |  | 0.006985 | 0.5794 | 0.00446 | 2.404 | 0.01679 | 1.108 | Rate constant with Cdk2 R122C (Cdk2(R122C) (C177A)): 0.004047
